Laboratory results as given in ChEMBL document CHEMBL3286333, “Concise synthesis of C-1-cyano-iminosugars via a new Staudinger/aza Wittig/Strecker multicomponent reaction strategy” (Bioorg Med Chem Lett, 2014).
pKi: −log10 of the molar value.

Experiments:
[1] = target: T1, Lysosomal acid glucosylceramidase (Homo sapiens, UniProt P04062); test: Inhibition of human lysosomal beta-glucocerebrosidase using 2,4-dinitrophenyl-beta-D-glucopyranoside as substrate by UV spectrophotometric analysis
T1 sequence (P04062 whole entry): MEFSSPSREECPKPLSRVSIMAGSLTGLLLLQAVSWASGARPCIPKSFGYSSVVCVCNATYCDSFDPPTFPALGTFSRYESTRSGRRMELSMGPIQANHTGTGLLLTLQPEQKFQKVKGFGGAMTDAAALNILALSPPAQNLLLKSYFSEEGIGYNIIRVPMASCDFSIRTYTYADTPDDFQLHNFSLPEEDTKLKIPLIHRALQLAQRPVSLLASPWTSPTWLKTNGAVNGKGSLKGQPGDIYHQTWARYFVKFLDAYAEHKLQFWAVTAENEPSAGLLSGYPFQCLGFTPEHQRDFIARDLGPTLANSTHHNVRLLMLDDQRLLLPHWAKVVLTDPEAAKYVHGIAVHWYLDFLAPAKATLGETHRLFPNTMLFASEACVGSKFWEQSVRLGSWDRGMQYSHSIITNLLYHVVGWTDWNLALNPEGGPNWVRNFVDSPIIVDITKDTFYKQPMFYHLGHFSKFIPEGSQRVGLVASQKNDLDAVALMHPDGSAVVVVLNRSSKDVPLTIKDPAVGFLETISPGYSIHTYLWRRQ

[2] = target: T1, Lysosomal acid glucosylceramidase; test: Inhibition of human lysosomal beta-glucocerebrosidase

| Compound | pKi [1] | pKi [2] |
| --- | --- | --- |
| N#C[C@H]1N[C@H](CO)[C@@H](O)[C@H](O)[C@H]1O | 3.15 |  |
| O[C@@H]1[C@@H](O)[C@@H](CCCCCOCC23CC4CC(CC(C4)C2)C3)NC[C@H]1O |  | 9.00 |
| CN(C)c1cccc2c(S(=O)(=O)NC[C@H]3NC[C@@H](O)[C@H](O)[C@H]3O)cccc12 | 8.12 |  |
| N#C[C@H]1NC[C@@H](O)[C@H](O)[C@H]1O | 4.47 |  |
